In patent publication US20250179047A1, “5-[7-(3,4-DIHYDRO-1H-ISOQUINOLINE-2-CARBONYL)-1,2,3,4 TETRAHYDROISOQUINOLIN-6-YL]-1H-PYRROLE-3-CARBOXAMIDE DERIVATIVES, PHARMACEUTICAL COMPOSITIONS CONTAINING THEM AND THEIR USES AS PRO-APOPTOTIC AGENTS” (LES LABORATOIRES SERVIER, priority 2022, published 2025):

What was measured:
KMS-12-PE Bcl-2 WT = experiment: In vitro cytotoxicity CellTiter-Glo 48 h, KMS-12-PE Bcl-2 WT; type: cell-based; conditions: C50 = concentration needed to reach 50% of the cellular viability
How it was run: (§1)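 Transduce KMS-12-PE with Bcl-2 WT or G101V lentivirus, then FACS-sort RFP-positive cells. Add compounds in an 11-point dilution series and incubate 48 h at 37 °C. Measure ATP-based luminescence with CellTiter-Glo and derive C50 (50% viability).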

BCL2 D111A = BCL2 D111A (Homo sapiens, UniProt P10415, D111A); experiment: TR-FRET competitive binding assay, BCL2 D111A; conditions: Ki determined from IC50, read-out: TR_FRET EKI_Bcl2 D111A
How it was run: (§2)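 Terbium-labelled N-terminal Halo-fusion BCL2 or BCLXL (E. coli), 0.5 nM, competed against fluorescein-labelled PUMA peptide (2 or 20 nM) for 2 h at 23° C in 50 mM Hepes pH 7.5, 150 mM NaCl, 5% DMSO. TR-FRET 520/495 nm ratio gave IC50 by four-parameter fit; Ki derived from IC50.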

CYP3A4 = CYP3A4 (Homo sapiens (Human), UniProt P08684); experiment: CYP3A4 inhibition determination in hepatic human microsomes; type: in vitro ADME; conditions: LC/MS-MS of specific metabolite
Procedure: The inhibitory potential was determined on CYP3 Å4 enzyme using hepatic human microsomes. A range of concentrations (adapted based on the solubility) of the tested compound were incubated in presence of a substrate having a specific metabolite of CYP3 Å4 enzyme.
Then, the formation of the metabolite was quantified using LC/MS-MS analysis and a curve corresponding to the concentration of the metabolite in function of the concentration of the test compound allowed to the calculation of the IC50 value.

BCL2 F104I = BCL2 F104I (Homo sapiens, UniProt P10415, F104I); experiment: TR-FRET competitive binding assay, BCL2 F104I; conditions: Ki determined from IC50, read-out: TR_FRET EKI_Bcl2 F104I
How it was run: as §2

KMS-12-PE Bcl-2 G101V = experiment: In vitro cytotoxicity CellTiter-Glo 48 h, KMS-12-PE Bcl-2 G101V; type: cell-based; conditions: for Ratio (G101V/WT): C50 KMS-12-PE Bcl-2 G101V over C50 KMS-12-PE Bcl-2 WT; for IC50: CellTiter-Glo, 48 h, C50 = concentration needed to reach 50% of the cellular viability
How it was run: as §1

BCL2 G101V [1] = target: BCL2 G101V (Homo sapiens, UniProt P10415, G101V); experiment: TR-FRET competitive binding assay, BCL2 G101V; conditions: BCL2 G101V; Ki determined from IC50; read-out: TR_FRET EKI_Bcl2 G101V
How it was run: as §2

BCL2 G101V [2] = experiment: TR-FRET competitive binding assay, BCL2 G101V; parameters: species or system human; conditions: ratio Ki BCL2 G101V / Ki BCL2 WT
How it was run: as §2

BCL2 D103Y = BCL2 D103Y (Homo sapiens, UniProt P10415, D103Y); experiment: TR-FRET competitive binding assay, BCL2 D103Y; conditions: Ki determined from IC50, read-out: TR_FRET EKI_Bcl2 D103Y
How it was run: as §2

BCLXL WT = BCLXL WT (Homo sapiens (Human), UniProt Q07817); experiment: TR-FRET competitive binding assay, BCLXL WT; conditions: for Ki: BCLXL WT, Ki determined from IC50, read-out: TR_FRET EKI BclxL; for TR_FRET EKI BCLxL/WT selectivty ratio: ratio Ki BCLxL / Ki BCL2 WT
How it was run: as §2

BCL2 WT = BCL2 WT (Homo sapiens (Human), UniProt P10415); experiment: TR-FRET competitive binding assay, BCL2 WT; conditions: Ki determined from IC50, read-out: TR_FRET EKI_Bcl2 WT
How it was run: as §2

KMS12PE Bcl2 R129L = experiment: In vitro cytotoxicity CellTiterGlo 72 h, KMS12PE Bcl2 R129L; type: cell-based; conditions: Homo sapiens, KMS-12-PE, read-out: C50 nM, KMS12PE Bcl2 R129L
Procedure: (§3) KMS-12-PE (ACC 606) were purchased from the Leibniz-Institute DSMZ (Braunschweig, Germany) and were grown at 37° C. in a humidified atmosphere with 5% CO2 in media recommended by the suppliers. Lentiviral particles containing Bcl-2 wild type (also named “Bcl2 WT”), Bcl-2 mutated on G101V (also named “Bcl2 G101V”), Bcl-2 mutated on D103Y (also named “Bcl2 D103Y”), Bcl-2 mutated on D103V (also named “Bcl2 D103V”), Bcl-2 mutated on D103E (also named “Bcl2 D103E”), Bcl-2 mutated on F104I (also named “Bcl2 F104I”), Bcl-2 mutated on F104L (also named “Bcl2 F104L”), Bcl-2 mutated on D111A (also named “Bcl2 D111A”), Bcl-2 mutated on A113G (also named “Bcl2 A113G”), Bcl-2 mutated on R129L (also named “Bcl2 R129L”), Bcl-2 mutated on V156D (also named “Bcl2 V156D”) were cloned into pcLV-CMV-DEST-IRES-TagRFP. Lentiviral particles (1×10^6) were mixed with Polybrene at 8 μg/ml and transduced by spinoculation for 1 h at 32° C. and incubated overnight. After 8 days, TagRFP positive-cells were sorted by FACS. BCL2 expression was monitored by immunoblotting using anti-Flag and anti-BCL2 antibodies. Cells were seeded into 96-wells plates and treated with 1:3.16 serial dilution of compounds (9 different concentrations). Cell viability was assessed using CellTiterGlo reagent following treatment for 72 h. Results were normalized to the viability of cells without compounds (control wells). The C50 values were calculated using nonlinear regression algorithms in XCell software.

KMS12PE Bcl2 WT = experiment: In vitro cytotoxicity CellTiterGlo 72 h, KMS12PE Bcl2 WT; type: cell-based; conditions: Homo sapiens, KMS-12-PE, read-out: C50 nM, KMS12PE Bcl2 WT
Procedure: as §3

KMS12PE Bcl2 A113G = experiment: In vitro cytotoxicity CellTiterGlo 72 h, KMS12PE Bcl2 A113G; type: cell-based; conditions: Homo sapiens, KMS-12-PE, read-out: C50 nM, KMS12PE Bcl2 A113G
Procedure: as §3

KMS12PE Bcl2 D103Y = experiment: In vitro cytotoxicity CellTiterGlo 72 h, KMS12PE Bcl2 D103Y; type: cell-based; conditions: Homo sapiens, KMS-12-PE, read-out: C50 nM, KMS12PE Bcl2 D103Y
Procedure: as §3

KMS12PE Bcl2 G101V = experiment: In vitro cytotoxicity CellTiterGlo 72 h, KMS12PE Bcl2 G101V; type: cell-based; conditions: Homo sapiens, KMS-12-PE, read-out: C50 nM, KMS12PE Bcl2 G101V
Procedure: as §3

KMS12PE Bcl2 V156D = experiment: In vitro cytotoxicity CellTiterGlo 72 h, KMS12PE Bcl2 V156D; type: cell-based; conditions: Homo sapiens, KMS-12-PE, read-out: C50 nM, KMS12PE Bcl2 V156D
Procedure: as §3

KMS12PE Bcl2 F104I = experiment: In vitro cytotoxicity CellTiterGlo 72 h, KMS12PE Bcl2 F104I; type: cell-based; conditions: Homo sapiens, KMS-12-PE, read-out: C50 nM, KMS12PE Bcl2 F104I
Procedure: as §3

KMS12PE Bcl2 D103E = experiment: In vitro cytotoxicity CellTiterGlo 72 h, KMS12PE Bcl2 D103E; type: cell-based; conditions: Homo sapiens, KMS-12-PE, read-out: C50 nM, KMS12PE Bcl2 D103E
Procedure: as §3

KMS12PE = experiment: In vitro cytotoxicity CellTiterGlo 72 h, KMS12PE; type: cell-based; conditions: Homo sapiens, KMS-12-PE, read-out: C50 nM, KMS12PE
Procedure: as §3

KMS12PE Bcl2 F104L = experiment: In vitro cytotoxicity CellTiterGlo 72 h, KMS12PE Bcl2 F104L; type: cell-based; conditions: Homo sapiens, KMS-12-PE, read-out: C50 nM, KMS12PE Bcl2 F104L
Procedure: as §3

KMS12PE Bcl2 D103V = experiment: In vitro cytotoxicity CellTiterGlo 72 h, KMS12PE Bcl2 D103V; type: cell-based; conditions: Homo sapiens, KMS-12-PE, read-out: C50 nM, KMS12PE Bcl2 D103V
Procedure: as §3

KMS12PE Bcl2 D111A = experiment: In vitro cytotoxicity CellTiterGlo 72 h, KMS12PE Bcl2 D111A; type: cell-based; conditions: Homo sapiens, KMS-12-PE, read-out: C50 nM, KMS12PE Bcl2 D111A
Procedure: as §3

Sequence of CYP3A4 (P08684 whole entry): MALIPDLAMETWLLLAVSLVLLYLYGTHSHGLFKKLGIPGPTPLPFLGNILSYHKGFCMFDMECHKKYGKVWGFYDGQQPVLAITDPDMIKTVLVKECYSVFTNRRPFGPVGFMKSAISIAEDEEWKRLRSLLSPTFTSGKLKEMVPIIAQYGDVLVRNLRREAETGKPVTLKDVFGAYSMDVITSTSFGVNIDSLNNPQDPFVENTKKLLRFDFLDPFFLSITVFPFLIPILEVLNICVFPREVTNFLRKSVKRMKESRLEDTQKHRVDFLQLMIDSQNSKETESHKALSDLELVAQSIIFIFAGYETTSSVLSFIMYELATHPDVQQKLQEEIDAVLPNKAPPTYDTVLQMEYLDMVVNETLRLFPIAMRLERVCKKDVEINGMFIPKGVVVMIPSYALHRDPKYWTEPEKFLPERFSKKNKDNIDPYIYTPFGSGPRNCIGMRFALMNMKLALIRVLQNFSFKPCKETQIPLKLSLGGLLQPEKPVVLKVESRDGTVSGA
Sequence of BCLXL WT (Q07817 other isoform, or with tags, fused parts or gaps): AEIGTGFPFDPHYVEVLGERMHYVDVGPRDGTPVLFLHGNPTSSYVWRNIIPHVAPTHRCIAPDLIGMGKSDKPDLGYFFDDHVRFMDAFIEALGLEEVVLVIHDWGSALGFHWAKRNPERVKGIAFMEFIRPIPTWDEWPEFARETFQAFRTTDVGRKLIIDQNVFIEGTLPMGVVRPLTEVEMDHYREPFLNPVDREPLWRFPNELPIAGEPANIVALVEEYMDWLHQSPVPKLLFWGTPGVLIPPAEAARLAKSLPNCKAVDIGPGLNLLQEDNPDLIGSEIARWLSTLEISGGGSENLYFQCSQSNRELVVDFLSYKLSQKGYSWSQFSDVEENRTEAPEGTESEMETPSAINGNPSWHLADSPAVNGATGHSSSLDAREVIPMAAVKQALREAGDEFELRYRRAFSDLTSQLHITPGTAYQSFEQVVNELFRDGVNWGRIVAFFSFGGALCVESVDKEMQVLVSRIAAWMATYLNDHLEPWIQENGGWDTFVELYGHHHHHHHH

Structure (SMILES) | Ki (BCL2 D111A) | IC50 (CYP3A4) | Ki (BCL2 F104I) | Ratio (G101V/WT) (KMS-12-PE Bcl-2 G101V) | Ki (BCL2 G101V [1]) | TR_FRET EKI G101V/WT selectivty ratio (BCL2 G101V [2]) | Ki (BCL2 D103Y) | Ki (BCLXL WT) | TR_FRET EKI BCLxL/WT selectivty ratio (BCLXL WT) | Ki (BCL2 WT) | IC50 (KMS-12-PE Bcl-2 WT; Homo sapiens, KMS-12-PE) | IC50 (KMS-12-PE Bcl-2 G101V; Homo sapiens, KMS-12-PE) | other results
Cc1c(N(C(=O)c2cc(-c3cc4c(cc3C(=O)N3Cc5ccccc5C[C@H]3CN3CCCCC3)CN(C(=O)Cc3ccc(OCCN5CCOC(C)C5)cc3F)CC4)n(C)c2C)c2ccc(O)cc2)cc(C#N)n1C (single isomer, unassigned) [Example 109, N-(5-cyano-1,2-dimethyl-1H-pyrrol-3-yl)-5-[2-(2-{2-fluoro-4-[2-((2R or S)-2-methylmorpholin-4-yl)ethoxy]phenyl}acetyl)-7-[(3S)-3-[(piperidin-1-yl)methyl]-1,2,3,4-tetrahydroisoquinoline-2-carbonyl]-1,2,3,4-tetrahydroisoquinolin-6-yl]-N-(4-hydroxyphenyl)-1,2-dimethyl-1H-pyrrole-3-carboxamide] | 0.12 nM | > 5000 nM | 0.25 nM | 4.38 | 0.2 nM | 5.5 | 0.15 nM | 3.9 nM | 90.7 | 0.04 nM | – | – | IC50 (KMS-12-PE Bcl-2 WT): 0.0048 µM; IC50 (KMS-12-PE Bcl-2 G101V): 0.022 µM
CC1(C)CCC(CN2CCN(c3ccc(C(=O)NS(=O)(=O)c4ccc(NCC5CCOCC5)c([N+](=O)[O-])c4)c(Oc4cnc5[nH]ccc5c4)c3)CC2)=C(c2ccc(Cl)cc2)C1 [ABT199, Venetoclax, reference compound] | – | – | – | – | – | – | – | – | – | – | – | – | IC50 (KMS12PE Bcl2 R129L): 42.6 nM; IC50 (KMS12PE Bcl2 WT): 30.2 nM; IC50 (KMS12PE Bcl2 A113G): 120 nM; IC50 (KMS12PE Bcl2 D103Y): 1140 nM; IC50 (KMS12PE Bcl2 G101V): 1050 nM; IC50 (KMS12PE Bcl2 V156D): 139 nM; IC50 (KMS12PE Bcl2 F104I): 1300 nM; IC50 (KMS12PE Bcl2 D103E): 260 nM; IC50 (KMS12PE): 5.5 nM; IC50 (KMS12PE Bcl2 F104L): 1420 nM; IC50 (KMS12PE Bcl2 D103V): 590 nM; IC50 (KMS12PE Bcl2 D111A): 22.4 nM
Cc1c(N(C(=O)c2cc(-c3cc4c(cc3C(=O)N3Cc5ccccc5C[C@H]3C)CN(C(=O)c3ccccc3)CC4)n(C)c2C)c2ccc(O)cc2)cc(C#N)n1C [Example 25, 5-{2-benzoyl-7-[(3R)-3-methyl-1,2,3,4-tetrahydroisoquinoline-2-carbonyl]-1,2,3,4-tetrahydroisoquinolin-6-yl}-N-(5-cyano-1,2-dimethyl-1H-pyrrol-3-yl)-N-(4-hydroxyphenyl)-1,2-dimethyl-1H-pyrrole-3-carboxamide] | – | 12000 nM | – | 12.4 | 1.3 nM | 7.6 | 0.48 nM | 3.2 nM | 18.8 | 0.17 nM | 0.0063 µM | 0.0778 µM | –
Cc1c(N(C(=O)c2cc(-c3cc4c(cc3C(=O)N3Cc5ccccc5C[C@H]3CN3CCCCC3)CN(C(=O)Cc3ccc(OCCN5CCOCC5)cc3)CC4)n(C)c2C)c2ccc(O)cc2)cc(C#N)n1C [Example 67, N-(5-cyano-1,2-dimethylpyrrol-3-yl)-N-(4-hydroxyphenyl)-1,2-dimethyl-5-[2-(2-{4-[2-(morpholin-4-yl)ethoxy]phenyl}acetyl)-7-{[(3S)-3-(piperidin-1-ylmethyl)-3,4-dihydro-1H-isoquinolin-2-yl]carbonyl}-3,4-dihydro-1H-isoquinolin-6-yl]pyrrole-3-carboxamide] | 0.09 nM | > 5000 nM | 0.23 nM | 5.2 | 0.2 nM | 6.3 | 0.16 nM | 2.6 nM | 68.4 | 0.04 nM | 0.0113 µM | 0.0562 µM | –
Cc1c(N(C(=O)c2cc(-c3cc4c(cc3C(=O)N3Cc5ccccc5C[C@H]3CN3CCCC3)CN(C(=O)Cc3ccc(OCCN(C)C5CC5)cc3F)CC4)n(C)c2C)c2ccc(O)cc2)cc(C#N)n1C [Example 101, N-(5-cyano-1,2-dimethylpyrrol-3-yl)-5-{2-[2-(4-{2-[cyclopropyl(methyl)amino]ethoxy}-2-fluorophenyl)acetyl]-7-{[(3S)-3-(pyrrolidin-1-ylmethyl)-3,4-dihydro-1H-isoquinolin-2-yl]carbonyl}-3,4-dihydro-1H-isoquinolin-6-yl}-N-(4-hydroxyphenyl)-1,2-dimethylpyrrole-3-carboxamide] | – | > 5000 nM | – | 4.86 | 0.1 nM | 4.7 | 0.07 nM | 1.9 nM | 105.6 | 0.02 nM | 0.0166 µM | 0.0806 µM | –
